Measured values as given in US4091115A, “7-Amino-benzocycloheptenes” (Roussel Uclaf, priority 1975, dated 1978).
pIC50: −log10 of the molar value. Counter-ions that a name gives are not always drawn.

Experiments:
effects of L-dopa = experiment: Potentiation of effects of L-dopa in mice pretreated with iproniazide; format: in vivo, male mice; conditions: Mus musculus, ip; i.p. one hour before L-dopa 100 mg/kg i.p.; iproniazide 75 mg/kg i.p. 18 hours before; read-out: ED50, dose which potentiates by 50% the L-dopa effects
Experimental: The administration of L-dopa to mice pretreated 18 hours previously with iproniazide produced certain number of symptoms; muscular hypertonically, hyperactivity, agitation, crying, aggressiveness, salivation and exophthalmy. The intensity of these effects is potentiated by administration of an antidepressant one hour before the administration of L-dopa. Male mices received intraperitoneally 75 mg/kg of iproniazide 18 hours before the start of the test and the tested product was intraperitoneally administered in aqueous solution in increasing doses. One hour later, L-dopa was intraperitoneally administered at a dose of 100 mg/kg and the different symptoms were observed 15 and 30 minutes later. They were evaluated on a scale of 0 to 3 for each animal and the totals for each dose were determined.

Acute toxicity in mice = format: in vivo; conditions: mouse, in vivo, ip, intraperitoneal
Experimental: (§1) The LD50 dose which kills 50% of mice after intraperitoneal administration of the tested compounds was determined 48 hours later and the results are reported in Table IV.

effects of 5-HTP = experiment: Potentiation of effects of 5-HTP in mice; format: in vivo; conditions: Mus musculus, 1 h; i.p. one hour before 5-HTP 200 mg/kg i.p.; trembling observed for an hour; read-out: MAD (minimal active dose), potentiation of 5-HTP effects
Experimental: The administration of 5-hydroxytryptophane (5-HTP) to mice pretreated with an antidepressant induces in the animals a particular behavior, namely the appearance of trembling. The tested products were administered intraperitoneally at increasing doses one hour before the intraperitoneal administration of 5-HTP at an dose of 200 mg/kg. The symptoms were observed every 15 minutes for an hour to determine the miminal active dose (MAD) of the test product and the results are reported in Table II.

[1] = test system: serotonine (5HT) uptake in synaptosomes; experiment: Inhibition of Serotonine uptake in vitro (brain synaptosomes); format: biochemical, female rat 19 to 21 days old; conditions: rat whole brain synaptosomes, 37° C, 5 minutes, 14 C-5HT 10^-7 M; read-out: I.C. 50, Test in vitro (inhibition of 14 C-5HT uptake)
Experimental: The inhibition of serotonine (5HT) uptake was measured in impure synaptosomes prepared from the entire brain of a female rat 19 to 21 days old using the technique of Kannengiesser et al [Biochemical Pharmacology, Vol. 22, (1973) p. 73]. Diverse concentrations of the products were placed in an incubator with the preparation at 37° C for 5 minutes in the presence of 14 C-5HT at a concentration of 10^-7 M. The 50% inhibiting concentration (IC50), dose which inhibits by 50% the uptake of 14 C-5HT in the synaptosomes was determined graphically and the IC50 dose for the compounds is reported in Table V.

[2] = test system: effects of monoamine oxidase inhibitor (nialamide); experiment: Potentiation of effects of monoamine oxidase inhibitor (nialamide) in mice; format: in vivo; set-up: key: Potentiation of the effects of nialamide for the tested product was expressed in increasing number of + signs for a determined dose in mg/kg; ++: Potentiation of the effects of nialamide for the tested product was expressed in increasing number of + signs for a determined dose in mg/kg; +++: Potentiation of the effects of nialamide for the tested product was expressed in increasing number of + signs for a determined dose in mg/kg; conditions: nialamide 100 mg/kg i.p. 30 minutes before, actimetry 6 hours
Experimental: The administration of a monoamine oxidase inhibitor to mice induces a hyperactive movement of the animals which is able to be potentiated by an antidepressant. Using the procedure of Carlsson et al [Brain Research, Vol. 12 (1969), p. 456], a dose of 100 mg/kg of nialamide was intraperitoneally administered to mice 30 minutes before the intraperitoneal administration of the tested product and the values of actimetric measurements were recorded every 30 minutes for 6 hours. Potentiation of the effects of nialamide for the tested product was expressed in increasing number of + signs for a determined dose in mg/kg.

[3] = test system: uptake of 14 C-5HT in synaptosomes; experiment: Inhibition of Serotonine uptake in vivo (synaptosomes from treated rats); set-up: species or system female rats 19 to 21 days old; key: the activity was expressed in increasing number of + signs; ++: the activity was expressed in increasing number of + signs; +++: the activity was expressed in increasing number of + signs; conditions: i.p. 5 to 20 mg/kg; brain removed after 30 minutes
Experimental: The tested products were intraperitoneally administered to groups of female rats 19 to 21 days old at doses of 5 to 20 mg/kg. After 30 minutes, the brain was removed and synaptosomes were prepared and placed in an incubator in the presence of 14 C-5HT as indicated in the previous test.

mice = experiment: Acute toxicity in mice; format: in vivo; conditions: intraperitoneal, 48 hours
Experimental: as §1

Row | Compound | ED50 (effects of L-dopa) [mg/kg] | LD50 at 48 h (Acute toxicity in mice) [mg/kg] | minimal effective dose (effects of 5-HTP) [mg/kg] | pIC50 [1] | Potentiation of nialamide ([2]; 1 mg/kg i.p.) | Potentiation of nialamide ([2]; 5 mg/kg i.p.) | Test in vivo (inhibition of 14 C-5HT uptake) [3] | Potentiation of nialamide ([2]; 20 mg/kg i.p.) | Potentiation of nialamide ([2]; 1-5 mg/kg i.p.) | LD50 (mice) [mg/kg]
1 | CNC1C=Cc2cc(Cl)ccc2CC1.Cl (stereo not shown) [Example 10 (2-chloro derivative), 2-chloro-7-methylamino-6,7-dihydro [5H] benzocycloheptene hydrochloride] | < 5 | 75 | 10 | 6.46 | +++ | +++ | +++ |  |  | 
2 | CN(C)C1C=Cc2ccccc2CC1 (stereo not shown) [Example 1, 7-dimethylamino-6,7-dihydro [5H] benzocycloheptene hydrochloride] | < 5 | 75 | 20 | 6.29 |  |  | ++ | ++ |  | 
3 | CN(C)C1C=C(c2ccccc2)c2ccccc2CC1 (stereo not shown) [Example 3, 7-dimethylamino-9-phenyl-6,7-dihydro [5H] benzocycloheptene hydrochloride] | 2 | 100 |  |  |  |  |  |  |  | 
4 | CN(C)C1CCc2ccccc2CC1 [Example 2, 7-dimethylamino-6,7,8,9-tetrahydro [5H] benzocycloheptene hydrochloride] | 5 | 100 |  |  |  |  |  | +++ | + | 
5 | CNC1CCc2ccccc2CC1 [Example 7, 7-methylamino-6,7,8,9-tetrahydro [5H] benzocycloheptene hydrochloride] | 10 | 100 |  |  |  | + |  | ++ |  | 
6 | CNC1CCc2ccccc2C(c2ccccc2)C1 (stereo not shown) [Example 9, 7-methylamino-5-phenyl-6,7,8,9-tetrahydro [5H] benzocycloheptene hydrochloride] | 5 | 50 | 20 |  |  |  |  |  |  | 
7 | CN(C)C1CCc2ccccc2C(c2ccccc2)C1 (single isomer, unassigned) [Example 5, 7-dimethylamino-5-phenyl-6,7,8,9-tetrahydro [5H] benzocycloheptene hydrochloride] | 2 |  | 10 | 6.82 | + |  | +++ | +++ |  | 50
8 | C=CCNC1C=Cc2ccccc2CC1 (stereo not shown) [Example 14, 7-allylamino-6,7-dihydro [5H] benzocycloheptene hydrochloride] | 20 | 150 | 50 |  |  |  |  | ++ |  | 
9 | CN(C)C1CCc2ccccc2C(c2ccccc2)C1 (single isomer, unassigned) [Example 4, 7-dimethylamino-5-phenyl-6,7,8,9-tetrahydro [5H] benzocycloheptene hydrochloride] |  | 50 |  |  |  |  |  |  |  | 
10 | CNC1C=C(c2ccccc2)c2ccccc2CC1 (stereo not shown) [Example 8, 7-methylamino-9-phenyl-6,7-dihydro [5H] benzocycloheptene hydrochloride] | 5 | 50 |  |  |  |  |  |  |  | 
11 | CN1CCN(C2C=Cc3ccccc3CC2)CC1 (stereo not shown) [Example 13, 7-(4-methylpiperazin-1-yl)-6,7,-dihydro [5H] benzocycloheptene difumarate] | 20 | 250 | 50 |  |  |  |  | ++ |  | 
12 | CNC1C=Cc2ccccc2CC1 (stereo not shown) [Example 6, 7-methylamino-6,7-dihydro [5H] benzocycloheptene hydrochloride] | 10 | 75 | 5 | 5.72 |  | ++ | ++ | +++ |  | 
13 | CCNC1C=Cc2ccccc2CC1 (stereo not shown) [Example 12, 7-ethylamino-6,7-dihydro [5H] benzocycloheptene hydrochloride] | 10 | 75 | 20 |  |  |  |  |  |  | 
14 | CNC1C=Cc2cccc(Cl)c2CC1 (stereo not shown) [Example 11, 4-chloro-7-methylamino-6,7-dihydro [5H] benzocyclopheptene hydrochloride] | 20 | 75 | 20 | 6.40 |  | + | + | +++ |  | 
